Source: patent US5952301A, “Compositions and methods for enhancing intestinal function” (1149336 Ontario Inc., priority 1996, dated 1999)
Values joined by “and” are separate entries in the source; they are usually repeats but may differ in a detail not shown here. Identical values can stand only once.

Key:
large intestine = test: Co-administration of GLP-2 with IGF-1 or GH: large intestine mass (Example 2); assay type: in vivo, mice; details: for Large Intestine Mass: s.c. twice daily (GH once daily) for 10 days, sacrifice day 11, GLP-2 peptides 2.5 μg, IGF-1/LRIGF-1 50 μg, GH 25 μg per dose, CD1 female mice; for % Change Relative to PBS Control (large intestine) / Change in Intestine Mass Relative to Control (large intestine): same regimen; for Change in Intestine Mass Relative to Control (large intestine): relative to PBS control
Excerpt: (§1) Forty-eight, six week old female CD1 mice (approx. 25 grams, obtained from Charles River Laboratories) were acclimatized in the animal facility for 1 week prior to the experiment. They were housed in plastic bottom, wire lid cages, maintained on a 12 hr light/dark cycle, and allowed chow and water, ad libitum throughout the study. Four days before starting the treatment the mice were weighed using a Mettler PJ300 scale and randomly allocated to 1 of 12 treatment groups. For the experiment, subcutaneous injections in the right hind quarter were given twice daily in the morning and evening for 10 days. However, Growth Hormone (GH) was administered only once a day in the morning. On day 10, the mice were fasted from 12 noon on. Body weight was also taken on day 5 and day 11.
(§2) The treatment groups consisted of the following peptides and peptide combinations. The amount of peptide received per dose by each animal is marked in beside each entry.
(§3) The peptides were weighed (Mettler AE166 scale), reconstituted and aliquoted on the day prior to the first injection. The injection volume, 0.5 ml, was constant through out the experiment using a 1/2 cc U-100 Insulin Syringe (Becton Dickinson and Company, N.J.). All peptide aliquots, except Protropin (GH), were kept at -20° C. and removed 60 minutes prior to injection to thaw. GH was kept at 4° C.
(§4) Control mice (group 1) received the same volume (0.5 ml) of phosphate buffered saline (PBS-1x-137 mM NaCl, 2.7 mM KCl, 4.3 mM Na2HPO4, pH 7.3). Peptides [rat GLP-2] (5 μg/ml) and human [Gly 2] GLP-2 (5 μg/ml) were reconstituted in PBS. One microliter of 1 N NaOH was required to dissolve [Gly2]hGLP-2 in 1 ml.
(§5) IGF recombinant peptides (IGF-1, Lot #FJF-103;Long R3IGF-1(LRIGF-1), Lot# HJF-A01 GroPep Pty Ltd., Australia) stock solutions were reconstituted in 10 mM HCl at a concentration of 1 mg/ml. To minimize the absorption of the peptide to the plastic surface, RIA Grade Bovine Serum Albumin (BSA) (BioLabs Lot 7943) was added to the PBS working solution (100 μg/ml BSA final concentration). Protropin (Growth hormone) (Lot C9009A2, Genentech Canada Inc., Burlington, ON) stock solution was reconstituted with Bacteriostatic water supplied in the kit. The working solution (50 μg/ml) was diluted in PBS (without BSA). Combination treatments of GH+rat GLP-2 and GH+[Gly 2]hGLP-2 were administered by mixing 0.25 mls of each peptide, which were taken up into the same syringe to maintain a consistent injection volume of 0.5 ml. All other combination treatments (for example, rGLP-2+IGF etc.) were initially made up as separate solutions, mixed together, and frozen down together as aliquots of a single mixture, to be administered as single 0.5 ml injections.
(§6) Mice were sacrificed on day 11. Weight measurements were taken for the heart, kidneys, stomach, small intestine and large intestine. Small intestine length was also measured. Blood was taken via cardiac puncture and the plasma was frozen for future analysis. Tissues were also removed for histological analysis.

small intestine [1] = test: Co-administration of GLP-2 with IGF-1 or GH: small intestine mass (Example 2); assay type: in vivo, mice; details: for Small Intestine Mass: s.c. twice daily (GH once daily) for 10 days, sacrifice day 11, GLP-2 peptides 2.5 μg, IGF-1/LRIGF-1 50 μg, GH 25 μg per dose, CD1 female mice; for % Change Relative to PBS Control (small intestine) / Change in Intestine Mass Relative to Control (small intestine): same regimen; for Change in Intestine Mass Relative to Control (small intestine): relative to PBS control
Excerpt: as §1, §2, §3, §4, §5, §6

small intestine [2] = test: Effect of rat GLP-2 on small intestine weight in mice (Example 1); assay type: in vivo; details: for Small Intestine Weight % body wt / Small Intestine Weight Ave: group average; for Small Intestine Weight % body wt / Small Intestine Weight Ave / Small Intestine Weight Day 10: 41.5 μg peptide per injection s.c. every 12 hours for 10 days, CD1 females; for Small Intestine Weight Day 10: single mice
Experimental: This experiment was designed to investigate the effect of GLP-2 on small intestine growth. Mice were treated with human GLP-1, rat GLP-2, or no peptide, and the mass of the small intestine analyzed.
For this experiment, rat GLP-2 and human GLP-1 (7-36 amide) were custom synthesized by application of the tBoc-based solid phase approach. […] The pH was then readjusted to about 7.0 by addition of an equal volume of IN NaOH […], and the solution volume was then adjusted to 10 mL by addition of distilled water. To prepare the formulation for injection, the 10 mL peptide solution and the 50 mL solution of 16% gelatin were combined with mixing, and aliquots for injection were drawn into a 0.5 mL insulin syringe. The same procedure was used to formulate the GLP-1, with the exception that no acid/base adjustment was necessary given its relative greater solubility in water.
Three groups of six mice (8 week old, CD1 females from Charles River Laboratories) were treated as follows. Each mouse received injections for 10 days. The injections were delivered subcutaneously in a final volume of 16% gelatin, with 0.5 cc injected subcutaneously every 12 hours. Mice treated with GLP-1 or GLP-2 peptide received 41.5 μg of the respective peptide in each injection. Control mice received 0.5 cc of 16% gelatin solution, but no peptide. Mice were fed standard rat chow with free access to food and water, until 12 hours prior to sacrifice, at which time food was withheld, and water only was given. The weight of the small intestine was ascertained by excising the entire intestine, and removing the stomach (proximal end) and appendix/cecum/large intestine (distal end). The remaining small intestine was cleaned with saline to remove feces, and weighed.

Substance	Large Intestine Mass (large intestine) [g]	% Change Relative to PBS Control (large intestine) (large intestine)	Change in Intestine Mass Relative to Control (large intestine) (large intestine) [g]	Small Intestine Mass (small intestine [1])	% Change Relative to PBS Control (small intestine) (small intestine [1])	Change in Intestine Mass Relative to Control (small intestine) (small intestine [1]) [g]	Small Intestine Weight % body wt (small intestine [2])	Small Intestine Weight Ave (small intestine [2])	Small Intestine Weight Day 10 (small intestine [2])	increase in the mass of small intestine relative to control group and GLP-1 group (small intestine [2]; about 2 mg/kg (about 500 nmole/kg) twice daily for 10 days)
IGF-1: Insulin-Like Growth Factor-1, recombinant peptide, GroPep Pty Ltd.	0.262	-7%	0.021	1.158 g and 1.517 g						
[Gly 2] hGLP-2: Human GLP-2 having Gly substituted for Ala at position 2 (HGDGSFSDEMNTILDNLAARDFINWLIQTKITD; Glucagon-like peptide 2; UniProt P01275 146-178, looked up, variant A2G)	0.308	+9%	0.025	1.810 g	+75%	0.775				
hGH: Protropin (Growth hormone), Genentech Canada Inc. [reference compound]	0.260	-8%	0.023	1.230 g	+19%	0.195				
human GLP-1 (7-36 amide) [reference compound]							5.26 ± .25 % body wt	1.33 ± .04 gm	1.4 gm and 1.3 gm and 1.2 gm	
rat GLP-2: rat Glucagon-like peptide-2, 33 amino acid peptide, custom synthesized by tBoc-based solid phase approach (HADGSFSDEMNTILDNLATRDFINWLIQTKITD; Glucagon-like peptide 2; UniProt P06883 146-178, looked up)	0.245	-13.10%	-0.038	1.066 g	+3%	0.031	8.12 ± .40 % body wt	2.08 ± .14 gm	1.8 gm and 2.3 gm and 2.4 gm	statistically significant (p-- 0.05) increase
